Measurements reported in US8980874B2, “Method and composition for treating diabetic ketoacidosis” (Midwestern University, priority 2009, dated 2015).
Entries after “also recorded” stand apart in the source; their conditions may differ. Structures can show the parent of a compound that is named as a salt. Non-standard residues stand in square brackets, D forms with d. Residues, ends and D or L forms follow the SMILES beside them.

Key:
rat model of DKA [1] = assay: Blood ketone levels in diabetic ketoacidosis rats; type: in vivo; conditions: for blood ketone levels, Day (pre tx): baseline before treatment; for blood ketone levels, Day (pre tx) / blood ketone levels, Day 4 (end of tx): mean±SEM; for effect of treatment on blood ketones: day 4, result in words (Table 2, FIG. 2); for blood ketone levels, Day 4 (end of tx): saline+insulin, alone or after bolus BMS-182874 9 mg/kg or BQ123 1 mg/kg
Description: Normotensive Sprague Dawley rats were kept on fasting for 2 hours with unlimited access to water. After 2 hours of fasting, rats were injected intraperitoneally with 150 mg/kg of streptozotocin in 0.05 mol/L citric acid, pH 4.3 to induced diabetes (Lam et al., 2005; Yuen et al., 2008), while non-diabetic control rats received an intraperitoneal injection of 0.05 mol/L citrate buffer (Lam et al., 2005; Yuen et al., 2008). Rats were allowed unlimited access to tap water and food. Each day rats were weighed and urine ketone levels were estimated by Urine Reagent Strips, 1K Parameter. Prior to streptozotocin or citrate buffer injection, baseline blood glucose levels were assessed by One Touch Ultra blood glucose strips from Lifescan, Milpitas, Calif., and baseline blood ketone levels were estimated using Cardiochek blood ketone analyzer. Blood glucose and ketone were measured again on day three and four to ensure the onset of hyperglycemia and ketoacidosis. […] Blood samples were withdrawn from the femoral […] for baseline reading prior to start of treatment, after the first hour of treatment, and then at the end of the treatment (fifth hour of experiment).
The animals were allowed to stabilize for at least 20 minutes following surgical procedures. Body weight, blood glucose, urinary ketone, blood ketone, arterial blood gases, blood electrolytes, mean arterial pressure, pulse pressure, heart rate, brain blood perfusion, brain and lung water content were determined in the following groups
(§1) Group 4: Diabetic saline/insulin treated (D-Saline+insulin treated): Rats were injected with streptozotocin in citrate buffer (150 mg/kg ip) to induce diabetes and ketoacidosis. On day three, rats were treated with 1.5 U/kg regular insulin (Humulin® R (Regular human insulin, rDNA origin). On day four, saline and insulin treatment was carried out. Rats were infused via cannulated femoral vein saline, 0.9% NaCl at 80 mL/kg/hr and 1.5 U/kg/hr regular insulin for one hour. During the next two through four hours, rats were infused with saline, 0.9% NaCl at 40 mL/kg/hr and 1.5 U/kg/hr regular insulin (Yuen et al., 2008).
(§2) Group 5: Diabetic BMS-182874/saline/insulin treated (D-BMS+Saline+insulin treated): Rats were injected with streptozotocin in citrate buffer (150 mg/kg ip) to induce diabetes and ketoacidosis. On day three, rats were treated with 1.5 U/kg regular insulin. On day four, rats were administered a bolus dose of selective ETA receptor antagonist, BMS-182874 (9 mg/kg), then saline and insulin treatment was carried out. Rats were infused via cannulated femoral vein saline, 0.9% NaCl at 80 mL/kg/hr and 1.5 U/kg/hr regular insulin for one hour. During the next two through four hours rats were infused with saline, 0.9% NaCl at 40 mL/kg/hr and 1.5 U/kg/hr regular insulin.
(§3) Group 6: Diabetic BQ123/saline/insulin treated (D-BQ+saline+insulin treated): Same as above for Group 5, except BQ123 (1 mg/kg body weight) is used as a substitute for BMS-182874 (9 mg/kg).
(§4) Data are presented as mean±SEM. The significance of differences was estimated by one-way analysis of variance (intra group comparison with respect to base line data) and two-way analysis of variance (inter group comparison with respect to corresponding time points from each groups) followed by application of the Dunnett's Multiple Comparisons and Bonferroni test respectively. A P value of less than 0.05 was considered to be significant. The statistical analysis was processed with GraphPad Prism software Version 5.00.

rat model of DKA [2] = assay: Cardiovascular parameters (MAP, pulse pressure, heart rate) in diabetic ketoacidosis rats; type: in vivo; conditions: for effect on mean arterial pressure: day 4, FIG. 3, antagonist given with saline+insulin; for effect on mean arterial pressure / effect on pulse pressure / effect on heart rate: result in words; for effect on pulse pressure: day 4, FIG. 4, antagonist given with saline+insulin; for effect on heart rate: day 4, FIG. 5, antagonist given with saline+insulin
Text: Rats were anaesthetized with urethane (1.5 g/kg ip.) and prepared for the determination of hemodynamic parameters (Gulati et al., 1997a; Gulati et al., 1997b). The anesthetized rats were shaved and immobilized to prepare for cannulation. A 2-3 centimeter (cm) incision was made above the femoral vein and artery and the vessels were dissected and cleaned. The left femoral vein was cannulated (PE-50 tubing, Clay Adams, Parsipanny, N.J.) and secured for drug administration. An ultra-miniature pressure transducer SPR-320 (2F Polyurethane), with a single pressure sensor side mounted at the tip (Millar Instruments, Houston, Tex.) was inserted in the left femoral artery to acquire the hemodynamic signals. Pressure transducer was connected to bridge amplifier (ML221 Bridge Amp; AD Instruments, Mountain View, Calif., USA) with Viking connector (AEC-10C) and the signals were continuously acquired at a sampling rate of 1000 S^−1 using Millar PowerLab 16/30 data acquisition system (AD Instruments, Mountain View, Calif., USA). Mean arterial pressure (MAP), heart rate (HR), and pulse pressure (PP) were determined and analyzed with LabChart-5.00 software program (Millar Instruments). After the experiment was completed, the animals were euthanized with a high dose of urethane (3 gm/kg).
as §1, §2, §3, §4

rat model of DKA [3] = assay: Brain and lung water content in diabetic ketoacidosis rats; type: in vivo; conditions: end of treatment; for effect on lung water content (pulmonary edema): FIG. 7, result in words; for effect on brain water content (cerebral edema): FIG. 8, result in words
Description: Water content in the lung and brain was determined to assess brain and pulmonary edema. Assessment of brain and lung water content was carried out as follows. At the end of treatment the animal was sacrificed and trachea was immediately tied, then the lungs were dissected out. The skull was opened and brain dissected out. Brain and lungs were rinsed with saline, and weighed (wet weight). The brain and lungs were kept for drying in an oven at a temperature of 60° C. for 72 hours, then weighed again (dry weight). The percent water content was calculated using the formula: [(wet weight−dry weight)/wet weight×100].
as §1, §2, §3, §4

[4] = tested on: rats induced with neurogenic pulmonary edema; conditions: cited from earlier work
[5] = tested on: intrathecal (IT) injection of ET-1 into rats; conditions: pre-treatment, intrathecal ET-1 in rats; cited from earlier work

In the case of `Cc1noc(NS(=O)(=O)c2cccc3c(N(C)C)cccc23)c1C` [BMS-182874, (5-Dimethylamino)-N-(3,4-dimethyl-5-isoxazolyl)-1-naphthalene sulfonamide hydrochloride], the “blood ketone levels, Day (pre tx)” value (rat model of DKA [1]) is reported as 31.01 ± 2.29 mg/dL, the “effect of treatment on blood ketones” value (rat model of DKA [1]; hydrochloride) is reported as “did not significantly affect blood ketones” and the “effect of treatment on blood ketones” value (rat model of DKA [1]; listed as BMS, hydrochloride) is reported as “produced a significant decrease in blood ketones”. For the same compound, the “blood ketone levels, Day 4 (end of tx)” value (rat model of DKA [1]) was 14.65 ± 2.70 mg/dL, the “effect on mean arterial pressure” value (rat model of DKA [2]) was “stabilized the arterial pressure” and the “effect on pulse pressure” value (rat model of DKA [2]) was “stabilized the pulse pressure”. The “effect on heart rate” value (rat model of DKA [2]) was “did not produce any decrease in heart rate compared to baseline”, the “effect on insulin induced hypertension” value (rat model of DKA [2]; day 4, result in words) was “prevented development of insulin induced hypertension” and the “effect on lung water content (pulmonary edema)” value (“effect on lung water content” for short) (rat model of DKA [3]) was “restored lung water content”. The “effect on brain water content (cerebral edema)” value (“effect on brain water content” for short) (rat model of DKA [3]) was “restored brain water content”.
For `CC(C)C[C@@H]1NC(=O)[C@@H](C(C)C)NC(=O)[C@@H]2CCCN2C(=O)[C@@H](CC(=O)O)NC(=O)[C@@H](Cc2c[nH]c3ccccc23)NC1=O` [BQ123, Cyclo(D-Trp-D-Asp-Pro-D-Val-Leu)] (cyclo(L[dW][dD]P[dV])), the “blood ketone levels, Day (pre tx)” value (rat model of DKA [1]) was 28.22 ± 3.14 mg/dL, the “effect of treatment on blood ketones” value (rat model of DKA [1]) was “particularly marked decrease in blood ketones; also recorded: significantly decrease the blood ketones” and the “blood ketone levels, Day 4 (end of tx)” value (rat model of DKA [1]) was 5.2 ± 0.36 mg/dL. The “effect on mean arterial pressure” value (rat model of DKA [2]) was “stabilized the arterial pressure”, the “effect on heart rate” value (rat model of DKA [2]) was “did not produce any decrease in heart rate compared to baseline” and the “effect on lung water content” value (rat model of DKA [3]) was “restored lung water content”. The “effect on brain water content” value (rat model of DKA [3]) was “restored brain water content”, the “effect on hypoxia and hypercapnea” value [4] was “ameliorated” and the “effect on pulmonary edema” value [5] was “prevented pulmonary edema”. For the same compound, the “reduction of mortality rate” value [5] was 50%.
For “Insulin: Humulin® R (Regular human insulin, rDNA origin), infused with saline”, the “blood ketone levels, Day (pre tx)” value (rat model of DKA [1]) was 31.925 ± 5.28 mg/dL, the “effect of treatment on blood ketones” value (rat model of DKA [1]) was “produced a significant decrease in blood ketones” and the “blood ketone levels, Day 4 (end of tx)” value (rat model of DKA [1]) was 12.8 ± 4.04 mg/dL. For the same compound, the “effect on mean arterial pressure” value (rat model of DKA [2]) was “produced much less fall in arterial pressure compared to untreated rats”, the “effect on pulse pressure” value (rat model of DKA [2]) was “produced much less fall in pulse pressure compared to untreated rats” and the “effect on heart rate” value (rat model of DKA [2]) was “did not produce any decrease in heart rate compared to baseline”. For the same compound, the “effect on lung water content” value (rat model of DKA [3]) was “restored lung water content” and the “effect on brain water content” value (rat model of DKA [3]) was “restored brain water content”.
